For assay [1], the target named is His-GST-TVMV-hRIPK1(1-324) (Homo sapiens (Human), UniProt Q13546). Put plainly: RIPK1 HTRF Binding Assay. As to conditions: HTRF binding, 1 h at rt; read-out: RIPK1 (IC50). In outline: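 HTRF probe-displacement binding: 1 nM His-GST-TVMV-hRIPK1(1-324) (baculovirus construct), 90.6 nM probe, 0.2 nM anti-GST-Tb in 20 mM HEPES, 10 mM MgCl2, 0.015% Brij-35, 4 mM DTT, 0.05 mg/mL BSA. Incubated 1 h at rt; FRET 520/495 nm ratio, inhibition relative to DMSO-only wells.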
(In general: Time-resolved FRET reads energy transfer from a long-lived donor to a nearby acceptor.)

Assay [2] deals with MLKL phosphorylation in HT29-L23 human colorectal adenocarcinoma cells. The assay is described as follows: MLKL Phosphorylation High-Content Assay. The assay is classed as cell-based. The note with it: Homo sapiens, 6 h, necroptosis induced with TNFα, SMAC mimetic and Z-VAD, read-out: pMLKL (IC50). The method in brief: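 HT29-L23 cells pretreated 30 min at 37 °C with compound (6.25 to 0.106 μM final), then necroptosis induced with TNFα 35 ng/mL, SMAC mimetic 700 nM and Z-VAD 140 nM for 6 h. Fixed cells immunostained for MLKL pS358 and imaged; IC50 and Ymax from 4-parameter logistic fit.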

The structures appear in SMILES notation.

Chain of His-GST-TVMV-hRIPK1(1-324) (Q13546 1-324): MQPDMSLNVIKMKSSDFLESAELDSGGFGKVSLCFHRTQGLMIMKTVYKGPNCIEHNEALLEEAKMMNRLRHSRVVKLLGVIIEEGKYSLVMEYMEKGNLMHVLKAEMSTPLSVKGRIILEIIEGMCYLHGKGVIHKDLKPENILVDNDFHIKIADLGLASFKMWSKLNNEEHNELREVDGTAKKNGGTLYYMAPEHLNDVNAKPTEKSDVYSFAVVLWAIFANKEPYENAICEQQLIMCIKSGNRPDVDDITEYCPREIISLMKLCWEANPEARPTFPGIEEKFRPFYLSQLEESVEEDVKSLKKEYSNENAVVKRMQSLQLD

Broadly, the IC50 is the concentration needed to halve the response being measured. Turning to `Cc1ncc(-c2ccc3nc(NC(=O)CN4CC(F)(F)C4)cn3n2)cc1C(=O)N[C@H](C)c1cc(OC(F)(F)F)ccc1F` [Example 335, 5-{2-[2-(3,3-difluoroazetidin-1-yl)acetamido]-imidazo[1,2-b]pyridazin-6-yl}-N-[(1R)-1-[2-fluoro-5-(trifluoromethoxy)-phenyl]ethyl]-2-methylpyridine-3-carboxamide], the half-maximal inhibitory concentration (IC50) is 28 nM in assay [1] and 9 nM in assay [2].

For the compound `Cc1ncc(-c2ccc3nc(NC(=O)CN4CCN(C)CC4)cn3n2)cc1C(=O)N[C@H](C)c1cc(OC(F)(F)F)ccc1F` [Example 336, N-[(1R)-1-[2-fluoro-5-(trifluoromethoxy)-phenyl]ethyl]-2-methyl-5-{2-[2-(4-methylpiperazin-1-yl)acetamido]imidazo[1,2-b]pyridazin-6-yl}pyridine-3-carboxamide], the half-maximal inhibitory concentration (IC50) in assay [1] turned out to be 19 nM; in assay [2] it was 8 nM.

Consider `Cc1ncc(-c2ccc3nc(NC(=O)CN(C)C)cn3n2)cc1C(=O)N[C@H](C)c1cc(OC(F)(F)F)ccc1F` [Example 338, 5-{2-[2-(dimethylamino)-acetamido]-imidazo[1,2-b]pyridazin-6-yl}-N-[(1R)-1-[2-fluoro-5-(trifluoromethoxy)-phenyl]ethyl]-2-methylpyridine-3-carboxamide], for which the IC50 in assay [1] turned out to be 21 nM; in assay [2] it was 50 nM.

In the case of `Cc1ncc(-c2ccc3nc(NC(=O)[C@H](C)O)cn3n2)cc1C(=O)N[C@H](C)c1cc(OC(F)(F)F)ccc1F` [Example 339, N-((R)-1-(2-fluoro-5-(trifluoromethoxy)-phenyl)ethyl)-5-(2-((S)-2-hydroxypropanamido)-imidazo[1,2-b]pyridazin-6-yl)-2-methylnicotinamide], the figures for the IC50 in assay [1] and in assay [2] were 48 nM and 170 nM, respectively.

For `CNCC(=O)Nc1cn2nc(-c3cnc(C)c(C(=O)N[C@H](C)c4cc(OC(F)(F)F)ccc4F)c3)ccc2n1` [Example 340, N-[(1R)-1-[2-fluoro-5-(trifluoromethoxy)-phenyl]ethyl]-2-methyl-5-{2-[2-(methylamino)-acetamido]imidazo [1,2-b]pyridazin-6-yl}pyridine-3-carboxamide], the half-maximal inhibitory concentration (IC50) in assay [1] amounted to 67 nM; in assay [2], 258 nM.

For the compound `Cc1ncc(-c2ccc3nc(NC(=O)CN)cn3n2)cc1C(=O)N[C@H](C)c1cc(OC(F)(F)F)ccc1F` [Example 341, 5-[2-(2-aminoacetamido)-imidazo[1,2-b]pyridazin-6-yl]-N-[(1R)-1-[2-fluoro-5-(trifluoromethoxy)-phenyl]ethyl]-2-methylpyridine-3-carboxamide], the half-inhibitory concentration (IC50) was 91 nM in assay [1] and 492 nM in assay [2].

For `CC(=O)OCC(=O)Nc1cn2nc(-c3cnc(C)c(C(=O)N[C@H](C)c4cc(OC(F)(F)F)ccc4F)c3)ccc2n1` [Example 342, {[6-(5-{[(1R)-1-[2-fluoro-5-(trifluoromethoxy)-phenyl]ethyl]-carbamoyl}-6-methylpyridin-3-yl)imidazo[1,2-b]pyridazin-2-yl]carbamoyl}-methyl acetate], the 50% inhibitory concentration (IC50) in assay [1] came out at 13 nM; in assay [2], 142 nM.

As to `Cc1ncc(-c2ccc3nc(NC(=O)CN4CCC(F)(F)CC4)cn3n2)cc1C(=O)NCC[C@@H](O)c1ccc(Cl)cc1` [Example 343, N-[(3R)-3-(4-chlorophenyl)-3-hydroxypropyl]-5-{2-[2-(4,4-difluoropiperidin-1-yl)acetamido]imidazo[1,2-b]pyridazin-6-yl}-2-methylpyridine-3-carboxamide], the values for the IC50 in assay [1] and in assay [2] were 9 nM and 24 nM, respectively.

Take `Cc1ncc(-c2ccc3nc(NC(=O)CN4CC(F)(F)C4)cn3n2)cc1C(=O)NCC[C@@H](O)c1ccc(Cl)cc1` [Example 344, N-[(3R)-3-(4-chlorophenyl)-3-hydroxypropyl]-5-{2-[2-(3,3-difluoroazetidin-1-yl)acetamido]imidazo[1,2-b]pyridazin-6-yl}-2-methylpyridine-3-carboxamide]: the concentration for half-maximal inhibition (IC50) worked out at 266 nM in assay [1] and 37 nM in assay [2].

On to `Cc1ncc(-c2ccc3nc(NC(=O)CN(C)C)cn3n2)cc1C(=O)NCC[C@H](O)c1ccc(Cl)cc1` [Example 347, N-[(3S)-3-(4-chlorophenyl)-3-hydroxypropyl]-5-{2-[2-(dimethylamino)-acetamido]-imidazo[1,2-b]pyridazin-6-yl}-2-methylpyridine-3-carboxamide], for which the IC50 in assay [1] came to 44 nM; in assay [2], 89 nM.

For the compound `CC(=O)Nc1cn2nc(-c3cnc(C)c(C(=O)Nc4cnn(C(C)c5ccc(F)cc5)c4)c3)ccc2n1` (stereo not shown) [Example 348, 5-{2-acetamidoimidazo[1,2-b]pyridazin-6-yl}-N-{1-[1-(4-fluorophenyl)ethyl]-1H-pyrazol-4-yl}-2-methylpyridine-3-carboxamide], the concentration for half-maximal inhibition (IC50) in assay [1] was found to be 2 nM; in assay [2], 27 nM.

As for `CC(=O)Nc1cn2nc(-c3cnc(C)c(C(=O)Nc4cn(Cc5ccc(Cl)cc5)cn4)c3)ccc2n1` [Example 349, N-{1-[(4-chlorophenyl)methyl]-1H-imidazol-4-yl}-5-{2-acetamidoimidazo[1,2-b]pyridazin-6-yl}-2-methylpyridine-3-carboxamide], the half-maximal inhibitory concentration (IC50) in assay [1] amounted to 51 nM; in assay [2] it was 424 nM.

On to `CC(=O)Nc1cn2nc(-c3cnc(C)c(C(=O)Nc4cn(Cc5ccc(F)cc5)cn4)c3)ccc2n1` [Example 350, 5-{2-acetamidoimidazo[1,2-b]pyridazin-6-yl}-N-{1-[(4-fluorophenyl)methyl]-1H-imidazol-4-yl}-2-methylpyridine-3-carboxamide], for which the values for the IC50 in assay [1] and in assay [2] were 27 nM and 169 nM, respectively.

Regarding `CC(=O)Nc1cn2nc(-c3cnc(C)c(C(=O)Nc4cn(Cc5ccccc5)cn4)c3)ccc2n1` [Example 351, N-(1-benzyl-1H-imidazol-4-yl)-5-{2-acetamidoimidazo [1,2-b]pyridazin-6-yl}-2-methylpyridine-3-carboxamide], the half-maximal inhibitory concentration (IC50) in assay [1] worked out at 28 nM; in assay [2], 49 nM.

Turning to `CC(=O)Nc1cn2nc(-c3cnc(C)c(C(=O)NCc4cc(-c5cnn(C)c5)ccc4F)c3)ccc2n1` [Example 352, 5-{2-acetamidoimidazo[1,2-b]pyridazin-6-yl}-N-{[2-fluoro-5-(1-methyl-1H-pyrazol-4-yl)phenyl]methyl}-2-methylpyridine-3-carboxamide], the IC50 in assay [1] was found to be 125 nM; in assay [2], 394 nM.

For `CC(=O)Nc1cn2nc(-c3cnc(C)c(C(=O)NCC(C)(O)Cc4ccc(F)cc4)c3)ccc2n1` (stereo not shown) [Example 356, 5-{2-acetamidoimidazo[1,2-b]pyridazin-6-yl}-N-[3-(4-fluorophenyl)-2-hydroxy-2-methylpropyl]-2-methylpyridine-3-carboxamide], the 50% inhibitory concentration (IC50) worked out at 150 nM in assay [1] and 485 nM in assay [2].

Take `CC(=O)Nc1cn2nc(-c3cnc(C)c(C(=O)N4CCCC(O)(Cc5ccc(F)cc5)C4)c3)ccc2n1` (stereo not shown) [Example 357, N-[6-(5-{3-[(4-fluorophenyl)methyl]-3-hydroxypiperidine-1-carbonyl}-6-methylpyridin-3-yl)imidazo[1,2-b]pyridazin-2-yl] acetamide]: the half-inhibitory concentration (IC50) in assay [1] worked out at 335 nM; in assay [2], 219 nM.

Take `CC(=O)Nc1cn2nc(-c3cc(F)c(C)c(C(=O)NCc4cc(OC(F)(F)F)ccc4F)c3)ccc2n1` [Example 359, 5-{2-acetamidoimidazo [1,2-b]pyridazin-6-yl}-3-fluoro-N-{[2-fluoro-5-(trifluoromethoxy)phenyl]methyl}-2-methylbenzamide]: the IC50 in assay [1] is 78 nM; in assay [2], 5 nM.

`CC(=O)Nc1cn2nc(-c3cc(F)c(C)c(C(=O)N[C@@H](C)c4cc(OC(F)(F)F)ccc4F)c3)ccc2n1` [Example 360, 5-{2-acetamidoimidazo [1,2-b]pyridazin-6-yl}-3-fluoro-N-[(1S)-1-[2-fluoro-5-(trifluoromethoxy)phenyl]ethyl]-2-methylbenzamide]: the IC50 in assay [1] worked out at 6 nM; in assay [2] it was 9 nM.

Take `CC(=O)Nc1cn2nc(-c3cc(F)c(C)c(C(=O)NCc4cccc(OC(F)(F)F)c4F)c3)ccc2n1` [Example 361, 5-{2-acetamidoimidazo [1,2-b]pyridazin-6-yl}-3-fluoro-N-{[2-fluoro-3-(trifluoromethoxy)phenyl]methyl}-2-methylbenzamide]: the figures for the IC50 in assay [1] and in assay [2] were 42 nM and 135 nM, respectively.

Regarding `Cc1c(F)cc(-c2ccc3nc(NC(=O)CN(C)C)cn3n2)cc1C(=O)NCC[C@H](O)c1ccc(Cl)cc1` [Example 362, N-[(3S)-3-(4-chlorophenyl)-3-hydroxypropyl]-5-{2-[2-(dimethylamino)acetamido]imidazo[1,2-b]pyridazin-6-yl}-3-fluoro-2-methylbenzamide], the half-inhibitory concentration (IC50) in assay [1] came out at 6 nM; in assay [2], 5 nM.

As for `CNCC(=O)Nc1cn2nc(-c3cc(F)c(C)c(C(=O)NCC[C@H](O)c4ccc(Cl)cc4)c3)ccc2n1` [Example 363, N-[(3S)-3-(4-chlorophenyl)-3-hydroxypropyl]-3-fluoro-2-methyl-5-{2-[2-(methylamino)acetamido]imidazo[1,2-b]pyridazin-6-yl}benzamide], the figures for the IC50 in assay [1] and in assay [2] were 65 nM and 47 nM, respectively.

As to `CC(=O)Nc1cn2nc(-c3cc(F)c(C)c(C(=O)NCc4ccccc4Oc4ccccc4)c3)ccc2n1` [Example 364, 5-{2-acetamidoimidazo [1,2-b]pyridazin-6-yl}-3-fluoro-2-methyl-N-[(2-phenoxyphenyl)methyl] benzamide], the IC50 in assay [1] and in assay [2] was 7 nM throughout.

The values above are taken from patent publication US11440913B2, “Aminoimidazopyridazines as kinase inhibitors” (BRISTOL-MYERS SQUIBB COMPANY, priority 2017, dated 2022).
